Columns and labels:
[1] = Inhibition of His-tagged recombinant NS5B Cdelta 21 polymerase expressed in Escherichia coli DH5alpha by standard primer dependent elongation assay; set-up: species or system Hepacivirus hominis
Hepacivirus hominis = experiment: Inhibition of His-tagged recombinant NS5B Cdelta 21 polymerase expressed in Escherichia coli DH5alpha at 250 uM by standard primer dependent elongation assay relative to control

SMILES	IC50 [1] [µM]	inhibition (Hepacivirus hominis) [%]
CC(C)C(C(=O)O)N1C(=O)/C(=C/c2ccc(F)cc2)SC1=S (centres undefined)	42.9	
O=C(O)CN1C(=O)/C(=C/c2ccc(C(F)(F)F)cc2)SC1=S	55.2	71
O=C(O)CN1C(=O)/C(=C/c2cccc(C(F)(F)F)c2)SC1=S	50.9	
CSCCC(C(=O)O)N1C(=O)/C(=C/c2ccc(Cl)cc2Cl)SC1=S (centres undefined)	29.2	
CCCC(C(=O)O)N1C(=O)/C(=C/c2ccc(Cl)cc2Cl)SC1=S (centres undefined)	28.2	
O=C(O)CN1C(=O)/C(=C/c2ccc([N+](=O)[O-])cc2)SC1=S	21.9	
CC(C(=O)O)N1C(=O)/C(=C/c2ccc(Cl)cc2Cl)SC1=S (centres undefined)	13.3	
O=C(O)CN1C(=O)/C(=C/c2ccc(F)cc2)SC1=S	42.1	
O=C1/C(=C/c2ccc(Cl)c(Cl)c2)SC(=S)N1NS(=O)(=O)c1ccccc1	0.2	
O=C(O)c1ccc2c(c1)C(=O)N(c1cccc(O)c1)C2=O	200	55
O=C(O)CN1C(=O)/C(=C/c2ccc(Cl)cc2Cl)SC1=S	17.9	
CC(C)CC(C(=O)O)N1C(=O)/C(=C/c2ccc(Cl)cc2Cl)SC1=S (centres undefined)	18.9	
O=C(O)CN1C(=O)/C(=C/c2ccccc2[N+](=O)[O-])SC1=S	16.2	
O=C(O)CCCN1C(=O)/C(=C/c2ccc(Cl)cc2Cl)SC1=S	58	
O=C(O)CN1C(=O)/C(=C/c2cccc(Cl)c2)SC1=S	18.4	
O=C1/C(=C/c2ccc(Cl)cc2Cl)SC(=S)N1CCS(=O)(=O)O	23.5	
O=C(O)CN1C(=O)/C(=C/c2cccc3ccccc23)SC1=S	61.4	
CC(C)C(C(=O)O)N1C(=O)/C(=C/c2cccc3ccccc23)SC1=S (centres undefined)	16.9	
O=C(O)CCN1C(=O)/C(=C/c2ccc(Cl)cc2Cl)SC1=S	19.9	
CC(C(=O)O)N1C(=O)/C(=C/c2cccc3ccccc23)SC1=S (centres undefined)	68.1	
O=C(O)CN1C(=O)/C(=C/c2ccc(Cl)c(Cl)c2)SC1=S	8.4	
N#Cc1nc(-c2ccccc2)c(-c2ccccc2)nc1C#N	250	48.6
CC(C)C(C(=O)O)N1C(=O)/C(=C/c2ccc(Cl)cc2Cl)SC1=S (centres undefined)	14.1	
CC(C)C(C(=O)O)N1C(=O)/C(=C/c2ccccc2Cl)SC1=S (centres undefined)	36.1	
O=C(O)CN1C(=O)/C(=C/c2cccc(Oc3ccccc3)c2)SC1=S	7.7	
CCc1ccc(/C=C2\SC(N[C@@H](C(=O)O)c3ccc(F)cc3)=NC2=O)o1 (stereo in doubt) [VALEANT]	3	
O=C(O)CN1C(=O)/C(=C/c2cccc(Br)c2)SC1=S	20.2	
O=c1oc2ccccc2c2c1ncn2-c1ccccc1	60.2	62.5
O=C(O)CCCCCN1C(=O)/C(=C/c2ccc(Cl)cc2Cl)SC1=S	16.1	
O=C(O)C(Cc1ccccc1)N1C(=O)/C(=C/c2ccc(Cl)cc2Cl)SC1=S (centres undefined)	10.6	

— ChEMBL document CHEMBL1177659, “Structure-based virtual screening, synthesis and SAR of novel inhibitors of hepatitis C virus NS5B polymerase” (Bioorg Med Chem, 2010)
